For 11 compounds, TGI results are on record in PubChem BioAssay (NCI).

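48-hour exposure; five concentrations; linearly interpolated endpoints. The concentration for full growth arrest is given as TGI.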

Test systems include NCI-H522 lung; HT29 colon; SF-268 CNS; M14 melanoma; SNB-75 CNS; ACHN renal; NCI-H226 lung; BT-549 breast; MDA-N; OVCAR-8 ovarian; PC-3 prostate; KM12 colon; MCF7 breast; CAKI-1 renal.
Common to all, as to assay: NCI anticancer screen, dose series, 48 h

With `O=C(/C=C/c1ccc(O)c([N+](=O)[O-])c1)CC(=O)/C=C/c1ccc(O)c([N+](=O)[O-])c1`, the TGI in the test on NCI-H522 lung, in the test with HT29 colon, in the test on SF-268 CNS, in the test on M14 melanoma, in the test on SNB-75 CNS and in the test with ACHN renal was greater than 100 µM each time. In addition, the TGI in the test with NCI-H226 lung was greater than 100 µM; with BT-549 breast it was greater than 100 µM; in the test on MDA-N it was greater than 100 µM; with OVCAR-8 ovarian it was 39.6 µM; in the test on PC-3 prostate, greater than 100 µM; in the test on KM12 colon, 97.6 µM. This compound also registered a TGI in the test with MCF7 breast greater than 100 µM.

On to `O=C(O)CN(CCNC(=O)OCC1c2ccccc2-c2ccccc21)CCNC(=O)OCC1c2ccccc2-c2ccccc21`, for which the TGI stood at 32.3 µM in the test on NCI-H522 lung; 32.9 µM in the test with HT29 colon; 39.8 µM in the test with SF-268 CNS; 73.4 µM in the test with M14 melanoma; 67.5 µM with SNB-75 CNS; 35.1 µM in the test with ACHN renal. Further, the TGI was 81.2 µM in the test with NCI-H226 lung; 67.4 µM in the test on BT-549 breast; 36.7 µM with MDA-N; 37.2 µM in the test with OVCAR-8 ovarian; 49 µM in the test with PC-3 prostate; 34.7 µM in the test with KM12 colon. The compound also registered a TGI in the test on MCF7 breast of 40.2 µM.

Turning to `COc1cc(-c2cc(=O)c3cc4c(cc3[nH]2)OCO4)cc(OC)c1O`, the TGI in the test on NCI-H522 lung, in the test on HT29 colon, in the test with SF-268 CNS, in the test on M14 melanoma, in the test with SNB-75 CNS and in the test with ACHN renal was greater than 10 µM each time. Also, the TGI with CAKI-1 renal, in the test with NCI-H226 lung, in the test on MDA-N, in the test on OVCAR-8 ovarian, in the test with PC-3 prostate and in the test on KM12 colon was greater than 10 µM throughout. The compound also registered a TGI in the test with MCF7 breast greater than 10 µM.

For the compound `O=C(O)CSc1nnc(COc2ccc(Cl)cc2)n1-c1ccccc1`, the TGI in the test on NCI-H522 lung, with HT29 colon, in the test on SF-268 CNS, in the test on M14 melanoma, in the test with SNB-75 CNS and with ACHN renal was greater than 100 µM in each case. Further, the TGI with CAKI-1 renal, in the test with NCI-H226 lung, with MDA-N, with OVCAR-8 ovarian, in the test with PC-3 prostate and in the test with KM12 colon was greater than 100 µM throughout. The TGI in the test on MCF7 breast is greater than 100 µM.

As for `Cc1nc(-c2ccc([N+](=O)[O-])cc2)cn2c1nc1ccccc12`, the TGI in the test with HT29 colon was greater than 100 µM; in the test with SF-268 CNS it was greater than 100 µM; in the test with M14 melanoma it was greater than 100 µM; with SNB-75 CNS, 69 µM; in the test with CAKI-1 renal, greater than 100 µM; in the test with NCI-H226 lung, greater than 100 µM. The TGI with BT-549 breast, in the test on MDA-N, in the test with OVCAR-8 ovarian, in the test with PC-3 prostate, in the test with KM12 colon and in the test on MCF7 breast was greater than 100 µM in each case.

On to `COc1ccccc1N/C(=C\C(=O)C(=O)NC12CC3CC(CC(C3)C1)C2)c1ccccc1`, for which the TGI in the test with NCI-H522 lung, in the test with HT29 colon, with SF-268 CNS, with M14 melanoma, with SNB-75 CNS and in the test with ACHN renal was greater than 10 µM each time. In addition, the TGI with CAKI-1 renal, in the test with NCI-H226 lung, in the test on MDA-N, in the test with OVCAR-8 ovarian, in the test with PC-3 prostate and in the test with KM12 colon was greater than 10 µM each time. This compound also yielded a TGI in the test on MCF7 breast greater than 10 µM.

On to `O=C(CN1c2ccccc2Sc2ccccc21)N1CCNCC1`, for which the TGI with HT29 colon, in the test with SF-268 CNS, in the test with M14 melanoma, in the test with SNB-75 CNS, with ACHN renal and in the test on NCI-H226 lung was greater than 100 µM in each case. The TGI with BT-549 breast, in the test on MDA-N, in the test with OVCAR-8 ovarian, in the test with PC-3 prostate, with KM12 colon and in the test with MCF7 breast was greater than 100 µM throughout.

Regarding `CCCc1cc(=O)c2c(C)c3[nH]c4ccc(Cl)cc4c3c(C)c2[nH]1`, the TGI with NCI-H522 lung was 4.51 µM; with HT29 colon it was 3.31 µM; with SF-268 CNS it was 24.1 µM; in the test with M14 melanoma, 9.52 µM; with SNB-75 CNS, 7.93 µM; in the test on ACHN renal it was 3.71 µM. Besides, the TGI in the test with CAKI-1 renal was 4.37 µM; in the test on NCI-H226 lung, 12.8 µM; with MDA-N, 3.9 µM; in the test on OVCAR-8 ovarian, 6.31 µM; in the test on PC-3 prostate, 14.7 µM; in the test with KM12 colon it was 12.3 µM. In the test with MCF7 breast, the TGI turned out to be 3.37 µM.

For the compound `CN(C)CCCOC(=O)C(c1ccccc1)C1(O)CCSCC1` (centres undefined), the TGI with NCI-H522 lung, in the test with HT29 colon, in the test with SF-268 CNS, in the test on M14 melanoma, in the test with SNB-75 CNS and with ACHN renal was greater than 100 µM throughout. Besides, the TGI with CAKI-1 renal, with NCI-H226 lung, in the test on MDA-N, with OVCAR-8 ovarian, with PC-3 prostate and with KM12 colon was greater than 100 µM throughout. The same compound showed a TGI in the test with MCF7 breast greater than 100 µM.

For `CC(C)(N=NC(C)(C)C(=O)NCCO)C(=O)NCCO`, the TGI in the test with NCI-H522 lung, with HT29 colon, in the test on SF-268 CNS, in the test with M14 melanoma, in the test with ACHN renal and in the test with CAKI-1 renal was greater than 100 µM each time. For the same compound, the TGI in the test on NCI-H226 lung, in the test with BT-549 breast, with MDA-N, with OVCAR-8 ovarian, in the test with PC-3 prostate and in the test with KM12 colon was greater than 100 µM in each case. The TGI with MCF7 breast is greater than 100 µM.

For `O=C(CC(=O)n1nc(-c2ccccc2)c(N=Nc2ccccc2C(=O)O)c1-c1ccccc1)Nc1ccc(Cl)cc1`, the TGI with HT29 colon was greater than 100 µM; in the test on M14 melanoma, greater than 100 µM; in the test on SNB-75 CNS it was 83.1 µM; with ACHN renal it was greater than 100 µM; in the test on NCI-H226 lung, greater than 100 µM; with BT-549 breast, 93 µM. Also, the TGI in the test on MDA-N, with OVCAR-8 ovarian, with PC-3 prostate, with KM12 colon and in the test on MCF7 breast was greater than 100 µM each time.
